Laboratory results from patent US7872051B2 (priority 2004, dated 2011).
Like-named read-outs stand apart in the source and are kept apart here.

How the values were obtained:
Urbani SARS = format: cell-based, Urbani SARS virus; conditions: for Kill rate: line gradient of FIG. 3
Solubility in water = format: physicochemical
[1] = system: A/Sydney/5/97 (human influenza virus H3N2); test: Trial 2 virucidal assay, A/Sydney/5/97 on MDCK cells; format: cell-based; conditions: for Kill rate: line gradient of FIG. 4
[2] = system: influenza virus A/Sydney/5/97; test: Trial 1 virucidal assay of PMD (CPE on MDCK cells); format: cell-based
C1008 cells = conditions: 5 min exposure, count after 24 h vs cell only control, rounded to nearest 5
Experimental: (§1) PMD was tested at the following concentrations: • 2% w/v (20 mg/ml) • 1% w/v (10 mg/ml) • 0.5% w/v (5 mg/ml • 0.25% w/v (2.5 mg/ml)
(§2) Each PMD concentration was made up in 100% isopropyl and then sufficient cell infection media added such that the final concentration of isopropyl was always 10%.
(§3) The different concentrations were made up by taking into account the initial dilution of the compound that occurs in the toxicity assay (step 1) and virucidal assay (step 4). The dilution factors for both assays are 2 and 1.1, respectively.
(§4) Each of the four PMD concentrations was tested for toxicity on each of the three cell lines.
(§5) A “cell only” control was also implemented by following the same procedure but substituting PMD (step 1) with infection media.
(§6) The procedure for the toxicity assay was as follows: • 1) Cells (200 μl), at 2×10^6 cells/ml, were added to PMD (200 μl) and the reaction incubated for 5 minutes at room temperature. • 2) The reaction was terminated by the addition of infection media (3.6 ml) appropriate to the cell line. • 3) The terminated reaction (1 ml) was added, in triplicate, to the relevant wells of a 24-well plate. • 4) The cells were incubated for 24 hours at 37° C., 5% CO2. • 5) After the incubation period, the cells were trypsinised, the appropriate triplicate wells pooled together and a viable cell count performed using Trypan blue dye. • 6) The toxicity of PMD was determined by calculating the percentage cell survival of the test cells in comparison to the control cells.

[3] = system: HSV-1 (Herpes Simplex Virus type 1); test: Trial 2 virucidal assay, HSV-1 on Vero cells; format: cell-based; conditions: for Kill rate: gradient between the 1 minute and 5 minute time-points (FIG. 2)
MDCK cells [4] = test: Trial 1 acute toxicity assay of PMD; conditions: PMD 2%, 0.5%, 0.25% and 0.1% w/v
Experimental: The toxicity of PMD at the following concentrations in cell maintenance media was determined on a cell line with MDCK cells: • 2.5 mg/ml (0.25% w/v) • 5 mg/ml (0.5% w/v) • 20 mg/ml (2% w/v)
A cell only control was also implemented by following the same procedure (steps 2-6), but substituting PMD with cell maintenance media.
Toxicity was determined by toxicity-induced CPE (cytopathic effect) observations, which was visually scored using microscopy techniques. Toxicity-induced CPE is characterised by burst or rounded cells, which have become dissociated from their neighbouring cells, or the presence of cellular debris. […]

MDCK cells [5] = conditions: 5 min exposure, count after 24 h vs cell only control, rounded to nearest 5
Experimental: as §1, §2, §3, §4, §5, §6

Vero cells = conditions: 5 min exposure, count after 24 h vs cell only control, rounded to nearest 5
Experimental: as §1, §2, §3, §4, §5, §6

CC1CCC(C(C)(C)O)C(O)C1 (stereo not drawn) [PMD, p-menthane-3,8-diol]
Antiviral effect (Urbani SARS; PMD 0.25%, 10 seconds' exposure): effective | Effectiveness against the virus (Urbani SARS; Urbani SARS): effective | Log reduction in viral titre (Urbani SARS; Urbani SARS, PMD 0.25% w/v, contact time 10 seconds): 1 −log10 TCID50/ml | Log reduction in viral titre (Urbani SARS; Urbani SARS, PMD 0.25% w/v, contact time 30 seconds): 2 −log10 TCID50/ml | Log reduction in viral titre (Urbani SARS; Urbani SARS, PMD 0.25% w/v, contact time 60 seconds (1 minute)): 1.5 −log10 TCID50/ml | Log reduction in viral titre (Urbani SARS; Urbani SARS, PMD 0.25% w/v, contact time 300 seconds (5 minutes)): 2 −log10 TCID50/ml | Kill rate (Urbani SARS; Urbani SARS, PMD 0.25% w/v): 4.0 −log10 TCID50/ml/min | Log reduction in viral titre (Urbani SARS; Urbani SARS, PMD 0.5% w/v, contact time 10 seconds): 1.5 −log10 TCID50/ml | Log reduction in viral titre (Urbani SARS; Urbani SARS, PMD 0.5% w/v, contact time 30 seconds): 2.5 −log10 TCID50/ml | Log reduction in viral titre (Urbani SARS; Urbani SARS, PMD 0.5% w/v, contact time 60 seconds (1 minute)): 2.5 −log10 TCID50/ml | Log reduction in viral titre (Urbani SARS; Urbani SARS, PMD 0.5% w/v, contact time 300 seconds (5 minutes)): 2.5 −log10 TCID50/ml | Kill rate (Urbani SARS; Urbani SARS, PMD 0.5% w/v): 6.0 −log10 TCID50/ml/min | Log reduction in viral titre (Urbani SARS; Urbani SARS, PMD 1% w/v, contact time 10 seconds): 2 −log10 TCID50/ml | Log reduction in viral titre (Urbani SARS; Urbani SARS, PMD 1% w/v, contact time 30 seconds): 1.5 −log10 TCID50/ml | Log reduction in viral titre (Urbani SARS; Urbani SARS, PMD 1% w/v, contact time 60 seconds (1 minute)): 2 −log10 TCID50/ml | Log reduction in viral titre (Urbani SARS; Urbani SARS, PMD 1% w/v, contact time 300 seconds (5 minutes)): 1.5 −log10 TCID50/ml | Kill rate (Urbani SARS; Urbani SARS, PMD 1% w/v): 6.0 −log10 TCID50/ml/min | Log reduction in viral titre (Urbani SARS; Urbani SARS, PMD 2% w/v, contact time 10 seconds): 1.5 −log10 TCID50/ml | Log reduction in viral titre (Urbani SARS; Urbani SARS, PMD 2% w/v, contact time 30 seconds): 1 −log10 TCID50/ml | Log reduction in viral titre (Urbani SARS; Urbani SARS, PMD 2% w/v, contact time 60 seconds (1 minute)): 1.5 −log10 TCID50/ml | Log reduction in viral titre (Urbani SARS; Urbani SARS, PMD 2% w/v, contact time 300 seconds (5 minutes)): 1.5 −log10 TCID50/ml | Kill rate (Urbani SARS; Urbani SARS, PMD 2% w/v): 6.0 −log10 TCID50/ml/min | Reduction in viral titre (significance) (Urbani SARS; all four concentrations, all contact times): significant reductions in viral titre | Solubility in water (Solubility in water): poorly soluble | PMD concentration desirable for a significant antiviral action ([1]; 10 seconds' contact time): at least 1 % w/v | Log reduction in viral titre ([1]; A/Sydney/5/97, PMD 0.25% w/v, contact time 10 seconds): 0.4 −log10 TCID50/ml | Log reduction in viral titre ([1]; A/Sydney/5/97, PMD 0.25% w/v, contact time 30 seconds): 1.9 −log10 TCID50/ml | Log reduction in viral titre ([1]; A/Sydney/5/97, PMD 0.25% w/v, contact time 60 seconds (1 minute)): 1.9 −log10 TCID50/ml | Log reduction in viral titre ([1]; A/Sydney/5/97, PMD 0.25% w/v, contact time 300 seconds (5 minutes)): 1.4 −log10 TCID50/ml | Kill rate ([1]; A/Sydney/5/97, PMD 0.25% w/v): 4.5 −log10 TCID50/ml/min | Log reduction in viral titre ([1]; A/Sydney/5/97, PMD 0.5% w/v, contact time 10 seconds): 0.4 −log10 TCID50/ml | Log reduction in viral titre ([1]; A/Sydney/5/97, PMD 0.5% w/v, contact time 30 seconds): 1.9 −log10 TCID50/ml | Log reduction in viral titre ([1]; A/Sydney/5/97, PMD 0.5% w/v, contact time 60 seconds (1 minute)): 2.4 −log10 TCID50/ml | Log reduction in viral titre ([1]; A/Sydney/5/97, PMD 0.5% w/v, contact time 300 seconds (5 minutes)): 1.9 −log10 TCID50/ml | Kill rate ([1]; A/Sydney/5/97, PMD 0.5% w/v): 4.8 −log10 TCID50/ml/min | Log reduction in viral titre ([1]; A/Sydney/5/97, PMD 1% w/v, contact time 10 seconds): 1.9 −log10 TCID50/ml | Log reduction in viral titre ([1]; A/Sydney/5/97, PMD 1% w/v, contact time 30 seconds): 2.4 −log10 TCID50/ml | Log reduction in viral titre ([1]; A/Sydney/5/97, PMD 1% w/v, contact time 60 seconds (1 minute)): 2.4 −log10 TCID50/ml | Log reduction in viral titre ([1]; A/Sydney/5/97, PMD 1% w/v, contact time 300 seconds (5 minutes)): 2.4 −log10 TCID50/ml | Kill rate ([1]; A/Sydney/5/97, PMD 1% w/v): 12.0 −log10 TCID50/ml/min | Log reduction in viral titre ([1]; A/Sydney/5/97, PMD 2% w/v, contact time 10 seconds): 1.9 −log10 TCID50/ml | Log reduction in viral titre ([1]; A/Sydney/5/97, PMD 2% w/v, contact time 30 seconds): 2.4 −log10 TCID50/ml | Log reduction in viral titre ([1]; A/Sydney/5/97, PMD 2% w/v, contact time 60 seconds (1 minute)): 2.4 −log10 TCID50/ml | Log reduction in viral titre ([1]; A/Sydney/5/97, PMD 2% w/v, contact time 300 seconds (5 minutes)): 2.4 −log10 TCID50/ml | Kill rate ([1]; A/Sydney/5/97, PMD 2% w/v): 12.0 −log10 TCID50/ml/min | Reduction of viral titre ([1]; PMD 1% w/v and 2% w/v, all contact time points): 1.9-2.4 log10 TCID50/ml | Reduction of infection (significance) ([1]; all concentrations tested, except 0.25% w/v and 0.5% w/v at the 10 second contact time): significantly reduces | Effectiveness against the virus ([1]; influenza virus A/Sydney/5/97): effective | Reduction of viral titre ([1]; the two lower concentrations (0.25%, 0.5% w/v), 30 second to 5 minute contact times): 1.9-2.4 log10 TCID50/ml | Viral replication as evidenced by cell survival [2]: no viral replication | Virucidal effect ([2]; PMD 0.5%, 0.25% and 0.1%, MDCK cells (cells were killed)): no virucidal effect | Percentage cell survival (C1008 cells; C1008, PMD 0.25% w/v): 80% | Percentage cell survival (C1008 cells; C1008, PMD 0.5% w/v): 60% | Percentage cell survival (C1008 cells; C1008, PMD 2% w/v): 100% | Effectiveness against the virus ([3]; HSV-1): effective | Log reduction in viral titre ([3]; HSV-1, PMD 0.25% w/v, contact time 10 seconds): 0 −log10 TCID50/ml | Log reduction in viral titre ([3]; HSV-1, PMD 0.25% w/v, contact time 30 seconds): 0 −log10 TCID50/ml | Log reduction in viral titre ([3]; HSV-1, PMD 0.25% w/v, contact time 60 seconds (1 minute)): 0 −log10 TCID50/ml | Log reduction in viral titre ([3]; HSV-1, PMD 0.25% w/v, contact time 300 seconds (5 minutes)): 0.5 −log10 TCID50/ml | Log reduction in viral titre ([3]; HSV-1, PMD 0.5% w/v, contact time 10 seconds): 0 −log10 TCID50/ml | Log reduction in viral titre ([3]; HSV-1, PMD 0.5% w/v, contact time 30 seconds): 0 −log10 TCID50/ml | Log reduction in viral titre ([3]; HSV-1, PMD 0.5% w/v, contact time 60 seconds (1 minute)): 0 −log10 TCID50/ml | Log reduction in viral titre ([3]; HSV-1, PMD 0.5% w/v, contact time 300 seconds (5 minutes)): 0 −log10 TCID50/ml | Log reduction in viral titre ([3]; HSV-1, PMD 1% w/v, contact time 10 seconds): 0 −log10 TCID50/ml | Log reduction in viral titre ([3]; HSV-1, PMD 1% w/v, contact time 30 seconds): 0.5 −log10 TCID50/ml | Log reduction in viral titre ([3]; HSV-1, PMD 1% w/v, contact time 60 seconds (1 minute)): 0.5 −log10 TCID50/ml | Log reduction in viral titre ([3]; HSV-1, PMD 1% w/v, contact time 300 seconds (5 minutes)): 1.5 −log10 TCID50/ml | Kill rate ([3]; HSV-1, PMD 1% w/v): 0.3 −log10 TCID50/ml/min | Log reduction in viral titre ([3]; HSV-1, PMD 2% w/v, contact time 10 seconds): 0 −log10 TCID50/ml | Log reduction in viral titre ([3]; HSV-1, PMD 2% w/v, contact time 30 seconds): 0 −log10 TCID50/ml | Log reduction in viral titre ([3]; HSV-1, PMD 2% w/v, contact time 60 seconds (1 minute)): 0.5 −log10 TCID50/ml | Log reduction in viral titre ([3]; HSV-1, PMD 2% w/v, contact time 300 seconds (5 minutes)): 2.5 −log10 TCID50/ml | Kill rate ([3]; HSV-1, PMD 2% w/v): 0.5 −log10 TCID50/ml/min | Antiviral activity ([3]; PMD 0.25% w/v and 0.5% w/v): did not exhibit any antiviral activity | Reduction in viral titre (significance) ([3]; PMD 1% w/v and 2% w/v, 5 minute contact time): Significant reduction in viral titre | Reduction in viral titre (significance) ([3]; all other concentrations and contact times): no significant reduction in viral titre | PMD concentration desirable for a significant effect ([3]; contact time of 5 minutes): at least 1 % w/v | Toxicity on MDCK cells (MDCK cells [4]): do not exhibit toxicity | Percentage cell survival (MDCK cells [5]; PMD 0.25% w/v): 40% | Percentage cell survival (MDCK cells [5]; PMD 0.5% w/v): 100% | Percentage cell survival (MDCK cells [5]; PMD 2% w/v): 85% | Percentage cell survival (Vero cells; PMD 0.25% w/v): 65% | Percentage cell survival (Vero cells; PMD 0.5% w/v): 65% | Percentage cell survival (Vero cells; PMD 2% w/v): 100%
